± gives the expanded uncertainty stated by the source.
Test: mn = molality of the nth substance listed, in mol/kg
Conditions: 101 kPa, Liquid

CCCCCCn1cc[n+](C)c1.[Br-] [3-hexyl-1-methyl-1H-imidazolium bromide] + O
Conditions | mass density, 298.15 K [kg/m3] | mass density, 303.15 K [kg/m3] | speed of sound, 298.15 K [m/s] | speed of sound, 303.15 K [m/s]
m1 = 0.0042 | – | 995.843 ± 0.51 | – | 1509.8 ± 3
m1 = 0.0048 | – | 995.864 ± 0.51 | – | 1509.8 ± 3
m1 = 0.0067 | – | 995.948 ± 0.51 | – | 1510.1 ± 3
m1 = 0.0081 | – | 996.006 ± 0.51 | – | 1510.1 ± 3
m1 = 0.0139 | – | 996.267 ± 0.51 | – | 1510.8 ± 3
m1 = 0.0295 | – | 996.983 ± 0.5 | – | 1512.6 ± 3
m1 = 0.0369 | – | 997.324 ± 0.5 | – | 1512.5 ± 3
m1 = 0.0487 | – | 997.863 ± 0.5 | – | 1514 ± 3
m1 = 0.064 | – | 998.545 ± 0.49 | – | 1515.7 ± 3
m1 = 0.073 | – | 998.942 ± 0.49 | – | 1516.7 ± 3
m1 = 0.094 | – | 999.878 ± 0.49 | – | 1519.2 ± 3
m1 = 0.1183 | – | 1000.95 ± 0.49 | – | 1522 ± 3
m1 = 0.1423 | – | 1002.01 ± 0.5 | – | 1524.7 ± 3
m1 = 0.1639 | – | 1002.94 ± 0.51 | – | 1526.9 ± 3
m1 = 0.2206 | – | 1005.38 ± 0.52 | – | 1532.7 ± 3
m1 = 0.2581 | – | 1006.95 ± 0.54 | – | 1536.2 ± 3
m1 = 0.3034 | – | 1008.86 ± 0.55 | – | 1540.7 ± 3
m1 = 0.3543 | – | 1010.93 ± 0.56 | – | 1545.3 ± 3
m1 = 0.3874 | – | 1012.32 ± 0.57 | – | 1548.2 ± 3
m1 = 0.4492 | – | 1014.81 ± 0.59 | 1545.4 ± 3 | 1552.9 ± 3
m1 = 0.6269 | 1023.56 ± 0.66 | 1021.66 ± 0.65 | 1561 ± 3.1 | 1566.8 ± 3.1
m1 = 0.8614 | 1032.12 ± 0.73 | 1030.03 ± 0.71 | 1576.3 ± 3.1 | 1580.2 ± 3.1
m1 = 1.001 | 1036.78 ± 0.77 | 1034.6 ± 0.75 | 1583.5 ± 3.1 | 1586.5 ± 3.1
m1 = 1.321 | 1046.8 ± 0.85 | 1044.42 ± 0.84 | 1595.6 ± 3.1 | 1596.9 ± 3.1
m1 = 1.739 | 1058.31 ± 0.96 | 1055.74 ± 0.95 | 1604.8 ± 3.2 | 1604.7 ± 3.2
m1 = 2.087 | 1066.78 ± 1 | 1064.09 ± 1 | 1609.4 ± 3.2 | 1608.4 ± 3.2
